{"source": "patent US12630534B2", "about": "(TAKEDA PHARMACEUTICAL COMPANY LIMITED, priority 2020, dated 2026)", "molecular_target": "T1, human GPR139 (Homo sapiens, UniProt Q6DWJ6)", "T1 construct": "expressed in transfected cells; host or cells: CHO-TREx (Life Technologies) cells, expression induced with doxycycline", "T1 sequence (Q6DWJ6 1-353)": "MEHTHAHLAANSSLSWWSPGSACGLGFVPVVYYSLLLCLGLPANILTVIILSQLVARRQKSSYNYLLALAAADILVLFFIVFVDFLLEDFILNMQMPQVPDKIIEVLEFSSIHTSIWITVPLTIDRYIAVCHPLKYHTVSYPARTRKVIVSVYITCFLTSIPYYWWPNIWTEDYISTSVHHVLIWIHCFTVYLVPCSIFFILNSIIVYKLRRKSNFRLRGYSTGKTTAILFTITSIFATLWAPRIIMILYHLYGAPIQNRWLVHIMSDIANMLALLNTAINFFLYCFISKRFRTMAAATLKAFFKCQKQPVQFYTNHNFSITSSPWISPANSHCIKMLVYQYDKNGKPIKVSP", "experiment": "Inhibition rate of the amount of IP1 in GPR139-expressed CHO cells (inverse agonist assay, Test Example 2)", "format": "cell-based", "settings": "relative value, inhibition rate of Example Compound 2 in Test Example 1 defined as 100%; for inhibition at 30 µM: CHO", "method_in_brief": "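CHO-TREx cells with doxycycline-inducible human GPR139 (2 μg/mL, 17 h) were incubated with compound at 2000 cells/well for 40 min at 37° C. IP1 quantified by HTRF (665/615 nm ratio ×10000); inhibition rate expressed relative to a reference compound defined as […].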"}
{"smiles": "Cc1nn(-c2cc(N(C)C3CCOCC3)cc(C(F)(F)F)c2F)c(=O)n1Cc1cnn(C(C)C)c1", "note": "[Example 92, 2-{2-fluoro-5-[methyl(oxan-4-yl)amino]-3-(trifluoromethyl)phenyl}-5-methyl-4-{[1-(propan-2-yl)-1H-pyrazol-4-yl]methyl}-2,4-dihydro-3H-1,2,4-triazol-3-one]", "values": [{"measurement": "inhibition at 30 µM", "result": 99, "unit": "%"}]}
{"smiles": "Cc1nn(-c2cc(N3CCOC(C)(C)C3)cc(C(F)(F)F)c2F)c(=O)n1Cc1cnn(C(C)C)c1", "note": "[Example 93]", "values": [{"measurement": "inhibition at 30 µM", "result": 99, "unit": "%"}]}
{"smiles": "Cc1nn(-c2cc(N3CCC(F)(F)C3)cc(C(F)(F)F)c2F)c(=O)n1Cc1cnn(C(C)C)c1", "note": "[Example 94, 2-[5-(3,3-difluoropyrrolidin-1-yl)-2-fluoro-3-(trifluoromethyl)phenyl]-5-methyl-4-{[1-(propan-2-yl)-1H-pyrazol-4-yl]methyl}-2,4-dihydro-3H-1,2,4-triazol-3-one]", "values": [{"measurement": "inhibition at 30 µM", "result": 99, "unit": "%"}]}
{"smiles": "CCn1cc(Cn2c(C)nn(-c3cc(N(C)C4CCOCC4)cc(C(F)(F)F)c3F)c2=O)cn1", "note": "[Example 95, 4-[(1-ethyl-1H-pyrazol-4-yl)methyl]-2-{2-fluoro-5-[methyl(oxan-4-yl)amino]-3-(trifluoromethyl)phenyl}-5-methyl-2,4-dihydro-3H-1,2,4-triazol-3-one]", "values": [{"measurement": "inhibition at 30 µM", "result": 100, "unit": "%"}]}
{"smiles": "CCn1cc(Cn2c(C)nn(-c3cc(N4CCOC(C)(C)C4)cc(C(F)(F)F)c3F)c2=O)cn1", "note": "[Example 96, 2-[5-(2,2-dimethylmorpholin-4-yl)-2-fluoro-3-(trifluoromethyl)phenyl]-4-[(1-ethyl-1H-pyrazol-4-yl)methyl]-5-methyl-2,4-dihydro-3H-1,2,4-triazol-3-one]", "values": [{"measurement": "inhibition at 30 µM", "result": 101, "unit": "%"}]}
{"smiles": "CCn1cc(Cn2c(C)nn(-c3cc(N4CCC(F)(F)CC4)cc(C(F)(F)F)c3F)c2=O)cn1", "note": "[Example 97, 2-[5-(4,4-difluoropiperidin-1-yl)-2-fluoro-3-(trifluoromethyl)phenyl]-4-[(1-ethyl-1H-pyrazol-4-yl)methyl]-5-methyl-2,4-dihydro-3H-1,2,4-triazol-3-one]", "values": [{"measurement": "inhibition at 30 µM", "result": 102, "unit": "%"}]}
{"smiles": "Cc1cn(-c2cc(N3CCO[C@H](C)C3)cc(C(F)F)c2F)c(=O)n1Cc1cnn(C(C)C)c1", "note": "[Example 98, 1-{3-(difluoromethyl)-2-fluoro-5-[(2R)-2-methylmorpholin-4-yl]phenyl}-4-methyl-3-{[1-(propan-2-yl)-1H-pyrazol-4-yl]methyl}-1,3-dihydro-2H-imidazol-2-one]", "values": [{"measurement": "inhibition at 30 µM", "result": 99, "unit": "%"}]}
{"smiles": "CCn1cc(Cn2c(C)cn(-c3cc(C(F)(F)F)nn3CCC3CCC3)c2=O)cn1", "note": "[Example 99, 1-[1-(2-Cyclobutylethyl)-3-(trifluoromethyl)-1H-pyrazole-5-yl]-3-[(I-ethyl-1H-pyrazole-4-yl)methyl]-4-methyl-1,3<dihydro-2H-imidazole-2-one]", "values": [{"measurement": "inhibition at 30 µM", "result": 101, "unit": "%"}]}
{"smiles": "CCn1cc(Cn2c(C)c(C)n(-c3cc(OC[C@@H]4CCCO4)cc(C(F)(F)F)c3)c2=O)cn1", "note": "[Example 100]", "values": [{"measurement": "inhibition at 30 µM", "result": 99, "unit": "%"}]}
{"smiles": "Cc1cn(Cc2cnn(C(C)C)c2)c(=O)n1-c1cc(OC[C@@H]2CCCO2)cc(C(F)(F)F)c1", "note": "[Example 101, 4-methyl-3-[3-{[(2S)-oxolan-2-yl]methoxy}-5-(trifluoromethyl)phenyl]-1-{[1-(propan-2-yl)-1H-pyrazol-4-yl]methyl}-1,3-dihydro-2H-imidazol-2-one]", "values": [{"measurement": "inhibition at 30 µM", "result": 99, "unit": "%"}]}
{"smiles": "CC(C)n1cc(Cn2ccn(-c3cc(C(F)(F)F)cc(N4CCO[C@H](C)C4)n3)c2=O)cn1", "note": "[Example 102, 1-{6-[(2R)-2-methylmorpholin-4-yl]-4-(trifluoromethyl)pyridin-2-yl}-3-{[1-(propan-2-yl)-1H-pyrazol-4-yl]methyl}-1,3-dihydro-2H-imidazol-2-one]", "values": [{"measurement": "inhibition at 30 µM", "result": 105, "unit": "%"}]}
{"smiles": "Cc1cn(Cc2cnn(C(C)C)c2)c(=O)n1-c1cc(C(F)(F)F)cc(N2CCO[C@H](C)C2)n1", "note": "[Example 103, 4-Methy-3-{6-[(2R)-2-methylmorpholine-4-yl]-4-(trifluoromethyl)pyridine-2-yl}-1-{[1-(propane-2-yl)-1H-pyrazole-4-yl]methyl}-1,3-dihydro-2H-imidazole-2-one]", "values": [{"measurement": "inhibition at 30 µM", "result": 103, "unit": "%"}]}
{"smiles": "CCn1cc(Cn2cc(C)n(-c3cc(C4CC4)cc(N4CCO[C@H](C)C4)c3)c2=O)cn1", "note": "[Example 104, 3-{3-cyclopropyl-5-[(2R)-2-methylmorpholin-4-yl]phenyl}-1-[(1-ethyl-1H-pyrazol-4-yl)methyl]-4-methyl-1,3-dihydro-2H-imidazol-2-one]", "values": [{"measurement": "inhibition at 30 µM", "result": 104, "unit": "%"}]}
{"smiles": "CCn1cc(Cn2cc(C)n(-c3cc(OCC(F)(F)F)cc(N4CCO[C@H](C)C4)n3)c2=O)cn1", "note": "[Example 105, 1-[(1-ethyl-1H-pyrazol-4-yl)methyl]-4-methyl-3-{6-[(2R)-2-methylmorpholin-4-yl]-4-(2,2,2-trifluoroethoxy)pyridin-2-yl}-1,3-dihydro-2H-imidazol-2-one]", "values": [{"measurement": "inhibition at 30 µM", "result": 103, "unit": "%"}]}
{"smiles": "CCn1cc(Cn2cc(C)n(-c3cc(C(F)(F)F)cc(OCC4CCCO4)n3)c2=O)cn1", "note": "(stereo not drawn) [Example 106, 1-[(1-ethyl-1H-pyrazol-4-yl)methyl]-4-methyl-3-{6-[(oxolan-2-yl)methoxy]-4-(trifluoromethyl)pyridin-2-yl}-1,3-dihydro-2H-imidazol-2-one]", "values": [{"measurement": "inhibition at 30 µM", "result": 102, "unit": "%"}]}
{"smiles": "CCn1cc(Cn2cc(C)n(-c3cc(OC[C@@H]4CCCO4)cc(C(F)(F)F)c3F)c2=O)cn1", "note": "[Example 107, 1-[(1-ethyl-1H-pyrazol-4-yl)methyl]-3-[2-fluoro-5-{[(2S)-oxolan-2-yl]methoxy}-3-(trifluoromethyl)phenyl]-4-methyl-1,3-dihydro-2H-imidazol-2-one]", "values": [{"measurement": "inhibition at 30 µM", "result": 104, "unit": "%"}]}
{"smiles": "CCn1cc(Cn2cc(C)n(-c3cc(C(F)(F)F)cc(OCC4CCCO4)n3)c2=O)cn1", "note": "(stereo not drawn) [Example 108, 1-[(1-ethyl-1H-pyrazol-4-yl)methyl]-4-methyl-3-{6-[(oxolan-2-yl)methoxy]-4-(trifluoromethyl)pyridin-2-yl}-1,3-dihydro-2H-imidazol-2-one]", "values": [{"measurement": "Inhibition Rate at 30 μM", "result": 102, "unit": "%"}]}
{"smiles": "CCn1cc(Cn2cc(C)n(-c3cc(C(F)(F)F)cc(OCC4CCCO4)n3)c2=O)cn1", "note": "(stereo not drawn) [Example 109, 1-[(1-ethyl-1H-pyrazol-4-yl)methyl]-4-methyl-3-{6-[(oxolan-2-yl)methoxy]-4-(trifluoromethyl)pyridin-2-yl}-1,3-dihydro-2H-imidazol-2-one]", "values": [{"measurement": "Inhibition Rate at 30 μM", "result": 101, "unit": "%"}]}
{"smiles": "CCn1cc(Cn2cc(C)n(-c3cc(C(F)(F)F)cc(NCC4(F)CCC4)n3)c2=O)cn1", "note": "[Example 110, 1-[(1-Ethyl-1-pyrazole-4-yl)methyl]-3-[6={[(1-fluorocyclobutyl)methyl]amino}-4-(trifluoromethyl)pyridine-2-yl]-4-methyl-1,3-dihydro-2H-imidazole-2-one]", "values": [{"measurement": "inhibition at 30 µM", "result": 101, "unit": "%"}]}
{"smiles": "CCn1cc(Cn2cc(C)n(-c3cc(C(F)(F)F)cc(N4CCOC(F)(F)C4)n3)c2=O)cn1", "note": "[Example 111, 3-[6-(2,2-difluoromorpholin-4-yl)-4-(trifluoromethyl)pyridin-2-yl]-1-[(1-ethyl-1H-pyrazol-4-yl)methyl]-4-methyl-1,3-dihydro-2H-imidazol-2-one]", "values": [{"measurement": "inhibition at 30 µM", "result": 105, "unit": "%"}]}
{"smiles": "CCn1cc(Cn2ccn(-c3nc(N4CCOC(C)(C)C4)cc(C(F)(F)F)c3F)c2=O)cn1", "note": "[Example 112, 1-[6-(2,2-dimethylmorpholin-4-yl)-3-fluoro-4-(trifluoromethyl)pyridin-2-yl]-3-[(1-ethyl-1H-pyrazol-4-yl)methyl]-1,3-dihydro-2H-imidazol-2-one]", "values": [{"measurement": "inhibition at 30 µM", "result": 100, "unit": "%"}]}
{"smiles": "CCn1cc(Cn2ccn(-c3cc(N(C)C4CCOCC4)cc(C(C)(C)O)c3F)c2=O)cn1", "note": "[Example 113, 1-[(1-ethyl-1H-pyrazol-4-yl)methyl]-3-{2-fluoro-3-(2-hydroxypropan-2-yl)-5-[methyl(oxan-4-yl)amino]phenyl}-1,3-dihydro-2H-imidazol-2-one]", "values": [{"measurement": "inhibition at 30 µM", "result": 103, "unit": "%"}]}
{"smiles": "CCn1cc(Cn2c(C)c(C)n(-c3cc(C(F)(F)F)cc(OC[C@H]4CCCO4)n3)c2=O)cn1", "note": "[Example 114, 1-[(1-ethyl-1H-pyrazol-4-yl)methyl]-4,5-dimethyl-3-[6-{[(2R)-oxolan-2-yl]methoxy}-4-(trifluoromethyl)pyridin-2-yl]-1,3-dihydro-2H-imidazol-2-one]", "values": [{"measurement": "inhibition at 30 µM", "result": 103, "unit": "%"}]}
{"smiles": "CCn1cc(Cn2c(C)c(C)n(-c3cc(C(F)(F)F)cc(OC[C@@H]4CCCO4)n3)c2=O)cn1", "note": "[Example 115, 1-[(1-ethyl-1H-pyrazol-4-yl)methyl]-4,5-dimethyl-3-[6-{[(2S)-oxolan-2-yl]methoxy}-4-(trifluoromethyl)pyridin-2-yl]-1,3-dihydro-2H-imidazol-2-one]", "values": [{"measurement": "inhibition at 30 µM", "result": 103, "unit": "%"}]}
{"smiles": "CCn1cc(Cn2ccn(-c3cc(OC4CCOCC4)cc(C(F)(F)F)c3F)c2=O)cn1", "note": "[Example 116, 1-[(1-ethyl-1H-pyrazol-4-yl)methyl]-3-{2-fluoro-5-[(oxan-4-yl)oxy]-3-(trifluoromethyl)phenyl}-1,3-dihydro-2H-imidazol-2-one]", "values": [{"measurement": "inhibition at 30 µM", "result": 101, "unit": "%"}]}
{"smiles": "CCn1cc(Cn2c(C)cn(-c3cc(OC4CCOCC4)cc(C(F)(F)F)c3F)c2=O)cn1", "note": "[Example 117, 3-[(1-ethyl-1H-pyrazol-4-yl)methyl]-1-{2-fluoro-5-[(oxan-4-yl)oxy]-3-(trifluoromethyl)phenyl}-4-methyl-1,3-dihydro-2H-imidazol-2-one]", "values": [{"measurement": "inhibition at 30 µM", "result": 100, "unit": "%"}]}
{"smiles": "CCn1cc(Cn2ccn(-c3cc(OC[C@@H]4CCCO4)cc(C(F)(F)F)c3F)c2=O)cn1", "note": "[Example 118, 1-[(1-ethyl-1H-pyrazol-4-yl)methyl]-3-[2-fluoro-5-{[(2S)-oxolan-2-yl]methoxy}-3-(trifluoromethyl)phenyl]-1,3-dihydro-2H-imidazol-2-one]", "values": [{"measurement": "inhibition at 30 µM", "result": 100, "unit": "%"}]}
